Test results: patent publication US20240024317A1, “CANCER TREATMENT USING BOSENTAN IN COMBINATION WITH A CHECKPOINT INHIBITOR” (Materia Therapeutics Inc., priority 2020, published 2024)

Tests used:
[1] = system: spontaneous E0771 metastases; assay: Survival of mice with spontaneous metastases after surgical removal of primary tumors; assay type: in vivo
Protocol: (§1) To determine if a stiffness-reducing and hypoxia-reducing (blood flow-increasing) regimen of bosentan could enhance the efficacy of an ICB cocktail of anti-PD-1 (mouse monoclonal anti-PD-1 CD279, clone RMP1-14, BioXCell) and anti-CTLA-4 (mouse monoclonal anti-CTLA-4 CD152, clone 9D9, BioXCell) antibodies, mice bearing primary tumors in a neo-adjuvant setting were administered various treatments. Therapy was administered before removing the primary tumors surgically to assess mice survival against spontaneous metastases that arose on treatment. For the combinatorial treatment with bosentan and Immunotherapy studies, bosentan 1 mg/kg or equal volume of diluent (control group) was administered by intraperitoneal injection (i.p.) once a day for 14 days, starting from once the tumor volumes reached an average size of 5 mm diameter. Immunotherapy was administrated as a cocktail of 10 mg/kg anti-PD-1 (CD279, clone RMP1-14, BioXCell) and 5 mg/kg anti-CTLA-4 (CD152, clone 9D9) following dilution in the recommended InVivoPure pH 7.0 Dilution Buffer (BioXCell). The immunotherapy cocktail was administered i.p. when tumors reached an average size of 200 mm^3 every three days for three doses. For the immunotherapy studies, animals were also treated with a non-targeting isotype control antibody (BioXCell). Primary tumors were excised when they reached an average size of 700 mm^3 and the tissue was sutured for the study of the metastatic tumors. Planar dimensions (x, y) of tumor were monitored every 2-3 days using a digital caliper and tumor volume was estimated from the volume of an ellipsoid and assuming that the third dimension, z, is equal to […]. For the overall survival studies, the ending point was the time to mouse death. […] In the E0771 study, 8 out of 10 mice initiated survived. […] The remaining five mice were rechallenged with a second inoculation of E0771 cells and the tumor growth rates were compared against healthy age-matched control mice.

[2] = system: spontaneous 4T1 metastases; assay: as above; assay type: in vivo; conditions: 1 mg/kg bosentan combined with ICB cocktail, n=8-10
Protocol: as §1

E0771 tumors [3] = assay: Atomic force microscopy (AFM) Young's modulus and stiffness fingerprint of excised tumors; assay type: in vivo, mice
E0771 tumors [4] = assay: Interstitial fluid pressure (IFP), wick-in-needle technique; assay type: in vivo, mice; conditions: 1 mg/kg bosentan
Protocol: (§2) Mice bearing syngeneic, orthotopic triple negative breast cancer (TNBC) were treated with a range of sub-therapeutic doses of bosentan, from 0.2 mg/kg to 10 mg/kg of body weight. Orthotopic models for murine mammary tumors were generated by implantation of 5×10^4 4T1 or E0771 cancer cells in 40 μl of serum-free medium into the third mammary fat pad of 6-8-week-old BALB/c and C57BL/6 female mice, respectively. 4T1 (ATCC® CRL-2539TH) and E0771 (94A001, CH3 BioSystems) mouse breast adenocarcinoma cell lines were purchased form ATCC and CH3 BioSystems, respectively. The cells were maintained at 37° C./5% CO2 in Roswell Park Memorial Institute medium (RPMI-1640, LM-R1637, Biosera) supplemented with 10% fetal bovine serum (FBS, FB-1001H, biosera) and 1% antibiotics (A5955, Sigma). Bosentan (bosentan Hydrate (S3051, Selleckchem) was dissolved in ddH2O containing 2% DMSO (GK2245, Glentham Life Science), 30% PEG300 (S6704, Selleckchem) and 2% Tween 80 (S6702, Selleckchem)) 1 mg/kg, 5 mg/kg, 10 mg/kg or equal volume of diluent (control group) was administered by intraperitoneal injection (i.p.) once a day for 10 days, starting from once the tumor volumes reached an average size of 100 mm^3. Tumors were excised when they reached an average size of 500 mm^3. Tissue stiffness was then measured non-invasively and longitudinally using ultrasound elastography. […]

[5] = Mouse body weight under bosentan monotherapy; assay type: in vivo, mice; conditions: bosentan monotherapy at any dose
Protocol: as §2

COc1ccccc1Oc1c(NS(=O)(=O)c2ccc(C(C)(C)C)cc2)nc(-c2ncccn2)nc1OCCO [bosentan, 4-tert-butyl-N-[6-(2-hydroxy-ethoxy)-5-(2-methoxy-phenoxy)-2-(pyrimidin-2-yl)pyrimidin-4-yl] benzenesulfonamide]
survival (Kaplan-Meier) ([1]; 1 mg/kg bosentan combined with ICB cocktail, E0771): potentiated | mice surviving ([1]; E0771 study, bosentan combined with ICB cocktail): 8 out of 10 | macrometastases in the lungs ([1]; three surviving mice sacrificed, bosentan combined with ICB cocktail): no evidence of macrometasteses | survival, median overall survival (Kaplan-Meier) [2]: potentiated | tissue stiffness, Young's modulus by atomic force microscopy (E0771 tumors [3]; 1 mg/kg daily bosentan, excised E0771 tumors): confirmed | mechanical fingerprint of the tissue (AFM stiffness histogram) (E0771 tumors [3]; tumors treated with 1 mg/kg): large contribution from cancer cells and little contribution from collagen | mechanical fingerprint of the tissue (AFM stiffness histogram) (E0771 tumors [3]; tumors treated with 10 mg/kg): heterogenous collagen contribution | interstitial fluid pressure (E0771 tumors [4]): decrease in interstitial fluid pressure | mouse body weight [5]: did not affect
